# Assay: Dissolution of the crystalline solid in water
# Type: physicochemical
# Settings: weighed amount of crystalline mass dissolved in water
# Description: The slurry was stirred and 50% NaOH (102.7 g) was slowly added as the flask was chilled in an ice bath to keep the temperature of the flask contents at around 75° F. Using a dropping funnel, elemental bromine (67.3 g) was dispensed at a rate of about one drop per second to the reaction medium, also with stirring and cooling to maintain a reaction temperature of 68° F. When the bromine addition was complete, the pH of the reaction medium was measured to be 1.97. A single charge of powdered trichloroisocyanuric acid (90.4% available Cl2) (33.1 g) was then delivered to the reaction medium through one of the necks of the flask. Stirring and cooling continued as normal as a fine powdery precipitate of cyanuric acid developed. After 10 minutes, 50% NaOH (11 g) was added dropwise in order to diminish the amount of bromine vapors that were fuming from the reaction medium. The cyanuric acid precipitate was then removed by vacuum filtration. […] The supernatant liquid above the crystals analyzed as 22.7% as Br2 (10.1% as Cl2), indicating the aqueous phase was losing active ingredient at the expense of crystal growth. […]
smiles,measurement,value
O.O=S(=O)([O-])NBr.[Na+] [hydrated sodium N-bromosulfamate],dissolution in water,dissolved rapidly and completely
